Read-outs that look alike come from different tables or passages of the source.
Experiments:
Type in all cases: cell-based, human
[1] = tested on: HeLa; assay: MTT antiproliferative assay, HeLa; conditions: 72 h; for IC50: read-out: calculated IC50 value; for inhibition at 10 µM / inhibition at 30 µM: read-out: Growth inhibition (%) ± SEM
From the text: (§1) Gynecological cancer cell lines, including ovarian (A2780), cervical (HeLa), and breast cancer cell lines (MCF7, T47D, MDA-MB-231, and MDA-MB-361) were purchased from the European Collection of Authenticated Cell Cultures (ECACC, Salisbury, United Kingdom). Additional cervical cell lines (SiHa and C33A) and a non-cancerous immortalized, mammary gland epithelial cell line (hTERT-HME1) were purchased from LGC Standards GmbH (Wesel, Germany). Non-cancerous fibroblast cells (MRC-5) were also obtained from the ECACC. All cells were cultured in minimal essential medium supplemented with 10% fetal bovine serum, 1% non-essential amino acids, and 1% antibiotic-antimycotic mixture, in humidified air containing 5% CO2 at 37°C. Immortalized hTERT-HME1 cells were maintained in serum-free mammary epithelial cell growth medium (MEGM) supplemented with insulin, human epidermal growth factor (hEGF), hydrocortisone, bovine pituitary extract, and an antibiotic-antimycotic mixture. All the medium and supplements were purchased from Lonza Group Ltd. (Basel, Switzerland).
(§2) The antiproliferative properties of the compounds were assessed by an MTT assay ([Mosmann, 1983]). Cells were seeded onto 96-well microplates at a density of 10,000 cells/well (MDA-MB-361 and C33A) or 5,000 cells/well (all other cell lines). After an overnight incubation, fresh medium containing the test compounds (at a concentration of 10 or 30 μM) was added. After incubation for 72 h at 37°C in humidified air, [3-(4,5-dimethylthiazol-2-yl)-2,5-diphenyltetrazolium bromide] (MTT) solution (5 mg/mL) was added. Purple formazan crystals were formed by the living cells during a 4 h contact period, which were assayed by spectrophotometry after having been dissolved in 100 μL DMSO. Untreated cells served as control, and cisplatin (CIS) (Ebewe Pharma GmbH, Unterach, Austria) was used as a reference compound. […] Two independent measurements were performed with five parallel wells. To present preliminary data concerning tumor selectivity of the potent compounds, the procedure was repeated on MRC-5 fibroblast and hTERT-HME1 immortalized mammary gland epithelial cells under the same experimental conditions.

[2] = tested on: SiHa; assay: MTT antiproliferative assay, SiHa; conditions: 72 h; for inhibition at 10 µM / inhibition at 30 µM: Homo sapiens, read-out: Growth inhibition (%) ± SEM
From the text: as §1, §2

[3] = tested on: C33A; assay: MTT antiproliferative assay, C33A; conditions: 72 h; for inhibition at 10 µM / inhibition at 30 µM: Homo sapiens, C-33-A, read-out: Growth inhibition (%) ± SEM
From the text: as §1, §2

[4] = tested on: A2780; assay: MTT antiproliferative assay, A2780; conditions: for Growth inhibition (%) ± SEM / inhibition at 10 µM / inhibition at 30 µM: 72 h; for inhibition at 10 µM / inhibition at 30 µM: Homo sapiens, read-out: Growth inhibition (%) ± SEM
From the text: as §1, §2

[5] = tested on: MCF-7; assay: MTT antiproliferative assay, MCF-7; conditions: 72 h; for inhibition at 10 µM / inhibition at 30 µM: Homo sapiens, MCF7, read-out: Growth inhibition (%) ± SEM
From the text: as §1, §2

[6] = tested on: MDA-MB-231; assay: MTT antiproliferative assay, MDA-MB-231; conditions: for inhibition at 10 µM / inhibition at 30 µM: Homo sapiens, read-out: Growth inhibition (%) ± SEM; for inhibition at 10 µM: MDA-MB-231, 10 μM
From the text: as §1, §2

[7] = tested on: MDA-MB-361; assay: MTT antiproliferative assay, MDA-MB-361; conditions: for Growth inhibition (%) ± SEM / inhibition at 10 µM / inhibition at 30 µM: 72 h; for inhibition at 10 µM / inhibition at 30 µM: Homo sapiens, read-out: Growth inhibition (%) ± SEM
From the text: as §1, §2

[8] = tested on: T47D; assay: MTT antiproliferative assay, T47D; conditions: 72 h; for inhibition at 10 µM / inhibition at 30 µM: Homo sapiens, read-out: Growth inhibition (%) ± SEM
From the text: as §1, §2

[9] = tested on: MRC-5; assay: MTT assay, non-cancerous fibroblasts MRC-5
From the text: as §1, §2

[10] = tested on: hTERT-HME1; assay: MTT assay, immortalized mammary gland epithelial cells hTERT-HME1; conditions: for Growth inhibition (%) ± SEM: 72 h
From the text: as §1, §2

[11] = read-out: calculated IC50 value

With `N.N.[Cl][Pt][Cl]` [CIS, cisplatin, reference compound] the “Growth inhibition (%) ± SEM” value ([1]; 10 μM) was 42.6 ± 2.3%, the “Growth inhibition (%) ± SEM” value ([1]; 30 μM) was 99.9 ± 0.3% and the IC50 [1] was 12.4 µM. The “Growth inhibition (%) ± SEM” value ([2]; 10 μM) was 88.6 ± 0.5%, the “Growth inhibition (%) ± SEM” value ([2]; 30 μM) was 90.2 ± 1.8% and the IC50 [2, 11] was 7.84 µM. The “Growth inhibition (%) ± SEM” value ([3]; 10 μM) was 83.8 ± 0.8%, the “Growth inhibition (%) ± SEM” value ([3]; 30 μM) was 93.9 ± 0.6% and the IC50 [3, 11] was 1.77 µM. For the same compound, the “Growth inhibition (%) ± SEM” value ([4]; A2780, 10 μM) was 83.6 ± 1.2%, the “Growth inhibition (%) ± SEM” value ([4]; A2780, 30 μM) was 95.0 ± 0.3% and the IC50 ([4]; A2780, 72 h, read-out: calculated IC50 value) was 1.3 µM. The “Growth inhibition (%) ± SEM” value ([5]; MCF-7, 10 μM) was 66.9 ± 1.8%, the “Growth inhibition (%) ± SEM” value ([5]; MCF-7, 30 μM) was 96.8 ± 0.4% and the “Growth inhibition (%) ± SEM” value ([6]; MDA-MB-231, 30 μM, 72 h) was 71.5 ± 1.2%. For the same compound, the IC50 ([6]; MDA-MB-231, 72 h, read-out: calculated IC50 value) was 19.1 µM, the “Growth inhibition (%) ± SEM” value ([7]; MDA-MB-361, 10 μM) was 67.5 ± 1.0% and the “Growth inhibition (%) ± SEM” value ([7]; MDA-MB-361, 30 μM) was 87.8 ± 1.1%. The IC50 ([7]; MDA-MB-361, 72 h, read-out: calculated IC50 value) was 3.74 µM, the “Growth inhibition (%) ± SEM” value ([8]; 10 μM) was 51.0 ± 2.0% and the “Growth inhibition (%) ± SEM” value ([8]; 30 μM) was 55.0 ± 1.5%. The IC50 [8, 11] was 9.78 µM, the “Growth inhibition (%) ± SEM” value ([9]; MRC-5, 10 μM, 72 h) was 60.3 ± 3.3% and the “Growth inhibition (%) ± SEM” value ([9]; MRC-5, 30 μM, 72 h) was 61.9 ± 1.0%. For the same compound, the IC50 ([9]; MRC-5, 72 h, read-out: calculated IC50 value) was 6.19 µM, the “Growth inhibition (%) ± SEM” value ([10]; hTERT-HME1, 10 μM) was 97.7 ± 0.3% and the “Growth inhibition (%) ± SEM” value ([10]; hTERT-HME1, 30 μM) was 99.1 ± 0.3%. For the same compound, the IC50 ([10]; hTERT-HME1, 72 h, read-out: calculated IC50 value) was 2.45 µM.
`C[C@]12CC[C@H]3[C@@H](CCC4=CC(=O)CC[C@@H]43)[C@@H]1CC[C@H]2O` [Compound 2, 17α-19-nortestosterone] gave an inhibition at 10 µM ([1]; Homo sapiens, 10 μM) of 28.1 ± 4%, an inhibition at 30 µM ([1]; Homo sapiens, 30 μM) of 37.9 ± 3.4% and an inhibition at 10 µM ([2]; 10 μM) of less than 20%. For the same compound, the inhibition at 30 µM ([2]; 30 μM) was less than 20%, the inhibition at 10 µM ([3]; 10 μM) was less than 20% and the inhibition at 30 µM ([3]; 30 μM) was less than 20%. It also gave an inhibition at 10 µM ([4]; A2780, 10 μM) of less than 20%, an inhibition at 30 µM ([4]; A2780, 30 μM) of less than 20% and an inhibition at 10 µM ([5]; MCF-7, 10 μM) of less than 20%. For the same compound, the inhibition at 30 µM ([5]; MCF-7, 30 μM) was 27.7 ± 3.7%, the inhibition at 10 µM ([6]; 72 h) was less than 20% and the inhibition at 30 µM ([6]; MDA-MB-231, 30 μM, 72 h) was less than 20%. It also gave an inhibition at 10 µM ([7]; MDA-MB-361, 10 μM) of less than 20%, an inhibition at 30 µM ([7]; MDA-MB-361, 30 μM) of less than 20% and an inhibition at 10 µM ([8]; 10 μM) of less than 20%. For the same compound, the inhibition at 30 µM ([8]; 30 μM) was less than 20%.
`C[C@]12CC[C@H]3[C@@H](CCC4=CC(=O)CC[C@@H]43)[C@@H]1CC[C@H]2Br` [Compound 4, 17α-bromo-19-nortestosterone] showed an inhibition at 10 µM ([1]; Homo sapiens, 10 μM) of 94.4 ± 0.7%, an inhibition at 30 µM ([1]; Homo sapiens, 30 μM) of 94.1 ± 0.5% and an IC50 ([1]; Homo sapiens) of 1.69 µM. The inhibition at 10 µM ([2]; 10 μM) was less than 20%, the inhibition at 30 µM ([2]; 30 μM) was less than 20% and the inhibition at 10 µM ([3]; 10 μM) was less than 20%. The inhibition at 30 µM ([3]; 30 μM) was less than 20%, the inhibition at 10 µM ([4]; A2780, 10 μM) was less than 20% and the inhibition at 30 µM ([4]; A2780, 30 μM) was 54.4 ± 1.6%. The inhibition at 10 µM ([5]; MCF-7, 10 μM) was less than 20%, the inhibition at 30 µM ([5]; MCF-7, 30 μM) was less than 20% and the inhibition at 10 µM ([6]; 72 h) was less than 20%. For the same compound, the inhibition at 30 µM ([6]; MDA-MB-231, 30 μM, 72 h) was less than 20%, the inhibition at 10 µM ([7]; MDA-MB-361, 10 μM) was less than 20% and the inhibition at 30 µM ([7]; MDA-MB-361, 30 μM) was less than 20%. It also gave an inhibition at 10 µM ([8]; 10 μM) of less than 20%, an inhibition at 30 µM ([8]; 30 μM) of less than 20% and an inhibition at 10 µM ([9]; Homo sapiens, MRC5, MRC-5, 10 μM, 72 h, read-out: Growth inhibition (%) ± SEM) of 11.9 ± 2.3%. The inhibition at 30 µM ([9]; Homo sapiens, MRC5, MRC-5, 30 μM, 72 h, read-out: Growth inhibition (%) ± SEM) was 20.4 ± 2.1%.

Reference: PMC6072853 (Frontiers in Pharmacology, 2018)
